Legend:
[1] = system: ein6/een mutant seedlings; experiment: taxol treatment of dark-grown ein6/een double mutant seedlings; format: in vivo, Arabidopsis thaliana
Excerpt: (§1) The role of ethylene in the reduction of hypocotyl and root elongation has not yet been elucidated. One possibility relates to the theory that cortical microtubules associated with the plasma membrane may direct the cellulose synthase complex that is responsible for cell wall deposition. The drug taxol acts to stabilize microtubules by inhibiting microtubule depolymerization (Schiff and Horwitz 1981) and may inhibit the shift in cortical microtubules upon ethylene treatment,(Heinstein and Chang 1994). To determine if taxol could affect the ethylene insensitivity phenotype of ein6/een mutants, wild-type and ein6/een mutants were given a 10 day taxol treatment in the dark (Example 12).
(§2) Wild-type Landsberg seedlings or ein6/een mutant seedlings were grown in the presence of either 0 μM, 0.1 μM, or 1 μM taxol for 10 days in the dark, following the method of Roman and Ecker (Phil. Trans. R. Soc. Lond. B. 350: 75–81, 1995, which is herein incorporated by reference in its entirety). […] Hypocotyl cells of the taxol-treated tissue appeared shorter and rounder than wild-type cells. […] From these observations, it has been concluded that the ein6/een double mutation, (or possibly the een single mutation) is responsible for the taxol sensitivity phenotype.

[2] = system: Wild-type Landsberg seedlings; experiment: taxol treatment of dark-grown wild-type seedlings; format: in vivo, Arabidopsis thaliana; conditions: 10 days in the dark
Excerpt: as §1, §2

Compound: CC(=O)O[C@H]1C(=O)[C@@]2(C)[C@H]([C@H](OC(=O)c3ccccc3)[C@]3(O)C[C@H](OC(=O)[C@H](O)[C@@H](NC(=O)c4ccccc4)c4ccccc4)C(C)=C1C3(C)C)[C@]1(OC(C)=O)CO[C@@H]1C[C@@H]2O [taxol]
- seedling phenotype (length) ([1]; 0.1 μM taxol, 10 days in the dark): shortened phenotype
- seedling length compared to non-treated ein6/een mutant seedlings ([1]; 1 μM taxol, 10 days in the dark): significantly shorter
- sensitivity of mutants to taxol ([1]; low levels (0.1 μM) of taxol, 10 day treatment in the dark): especially sensitive
- seedling size compared to untreated seedlings ([2]; 0.1 μM taxol): did not have an altered size
- effect on seedling elongation ([2]; 1 μM taxol): inhibition of elongation

Reference: US7220587B2 (priority 2001, dated 2007)
